Reference: US20250221966A1, “RXFP1 AGONISTS” (BRISTOL-MYERS SQUIBB COMPANY, priority 2021, published 2025)

Each compound was assayed against T1, human RXFP1 (Homo sapiens, UniProt Q9HBX9) (assay: RXFP1 cAMP assay (hRXFP1 HEK293 cAMP assay, HTRF)). Details: HEK293 cells stably expressing human RXFP1, 30 min at room temperature, read-out: cAMP hRXFP1 HEK293 Assay EC50.
T1 construct: expressed in transfected cells
T1 sequence (Q9HBX9 1-757): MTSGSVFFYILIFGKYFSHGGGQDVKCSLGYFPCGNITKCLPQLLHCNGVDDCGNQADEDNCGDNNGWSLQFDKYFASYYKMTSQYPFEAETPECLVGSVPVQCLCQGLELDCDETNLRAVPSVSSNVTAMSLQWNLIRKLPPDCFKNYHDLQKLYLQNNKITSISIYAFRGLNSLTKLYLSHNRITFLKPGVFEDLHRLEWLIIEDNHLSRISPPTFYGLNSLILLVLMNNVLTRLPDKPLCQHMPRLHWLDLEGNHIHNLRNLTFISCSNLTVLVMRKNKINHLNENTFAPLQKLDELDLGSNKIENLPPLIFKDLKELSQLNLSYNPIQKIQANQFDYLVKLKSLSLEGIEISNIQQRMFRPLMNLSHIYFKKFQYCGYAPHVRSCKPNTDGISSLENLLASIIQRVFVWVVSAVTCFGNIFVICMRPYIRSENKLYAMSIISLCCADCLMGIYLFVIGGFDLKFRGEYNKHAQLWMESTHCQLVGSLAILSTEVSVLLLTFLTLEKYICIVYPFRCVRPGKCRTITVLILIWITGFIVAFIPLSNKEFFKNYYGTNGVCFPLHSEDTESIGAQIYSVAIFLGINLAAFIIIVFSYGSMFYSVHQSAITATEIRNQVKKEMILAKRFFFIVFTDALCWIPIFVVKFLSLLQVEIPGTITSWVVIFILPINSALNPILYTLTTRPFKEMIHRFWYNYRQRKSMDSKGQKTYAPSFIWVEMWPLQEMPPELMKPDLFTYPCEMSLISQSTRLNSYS
Format: cell-based
In short: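 hRXFP1-HEK293 stable line; HBSS + Ca/Mg, 20 mM HEPES, 0.05% BSA, 0.5 mM IBMX; cpd 0.010 nM–50 μM, 2% DMSO; 30 min RT; lysis, HTRF cAMP detection; 4-PL fit.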

EC50 [nM] | SMILES
4.7 | COc1ccc(C2=NOC3CC(C(O)C(F)(F)F)CC23)cc1C(=O)N[C@H]1[C@@H](C(=O)Nc2ccc(F)c(C(F)(F)F)c2)[C@H]2CC[C@@H]1/C2=C\C1CC1 (stereo partly shown) [compound 856]
112 | COc1ccc(C2=NOC(C3(O)CCC3)C2)cc1C(=O)N[C@H]1[C@@H](C(=O)Nc2ccc(F)c(C(F)(F)F)c2)[C@H]2CC[C@@H]1/C2=C\C1CC1 (single isomer, unassigned) [compound 603]
5.5 | COc1c(F)cc(C2=NOC3CC(CO)CC23)cc1C(=O)N[C@H]1[C@@H](C(=O)Nc2ccc(F)c(C(F)(F)F)c2)[C@H]2CC[C@@H]1/C2=C\C1CC(F)(F)C1 (stereo partly shown) [compound 918]
11 | COc1ccc(C2=NOC(CC(C)(C)O)C2)cc1C(=O)N[C@H]1[C@@H](C(=O)Nc2ccc(F)c(C(F)(F)F)c2)[C@H]2CC[C@@H]1/C2=C\C1CC1 (single isomer, unassigned) [compound 499]
3.9 | COc1ccc(-c2cc([C@H](OC(=O)NC3CCC3)C(F)(F)F)ccc2F)cc1C(=O)N[C@H]1[C@@H](C(=O)Nc2ccc(F)c(C(F)(F)F)c2)[C@H]2CC[C@@H]1/C2=C\C[C@@H](O)C(F)(F)F [compound 932]
6.8 | COc1ccc(C2=NOC3CC(C(N)=O)CC23)cc1C(=O)N[C@H]1[C@@H](C(=O)Nc2ccc(F)c(C(F)(F)F)c2)[C@H]2CC[C@@H]1/C2=C\C(F)(F)F (single isomer, unassigned) [compound 482]
4.5 | COc1ccc(-c2cccc(C3=NOC4CC(O)CC34)c2)cc1C(=O)N[C@H]1[C@@H](C(=O)Nc2ccc(F)c(C(F)(F)F)c2)[C@H]2CC[C@@H]1/C2=C\C1CC1 (stereo partly shown) [compound 901]
3.7 | COc1ccc(C2=NOC3CC(OC)CC23)cc1C(=O)N[C@@H]1C2CCC(/C2=C/C2CC2)[C@@H]1C(=O)Nc1ccc(F)c(C(F)(F)F)c1 (stereo partly shown) [compound 867]
102 | COc1ccc(C2=NOC(C(C)O)C2)cc1C(=O)N[C@H]1[C@@H](C(=O)Nc2ccc(F)c(C(F)(F)F)c2)[C@H]2CC[C@@H]1/C2=C\C1CC1 (single isomer, unassigned) [compound 598]
1310 | COc1ccc(-c2cc([C@H](OC(=O)NC3CCC3)C(F)(F)F)ccc2F)cc1C(=O)N[C@@H]1C2/C(=C\C(F)(F)F)C(C(O)C2O)[C@@H]1C(=O)Nc1ccc(F)c(C(F)(F)F)c1 (stereo partly shown) [Example 348]
20 | COc1ccc(-c2ccc(CC(=O)O)cc2)cc1C(=O)N[C@@H]1C2CCC(/C2=C/c2cnoc2)[C@@H]1C(=O)Nc1ccc(F)c(C(F)(F)F)c1 (stereo partly shown) [compound 188]
4.2 | O=C(N[C@H]1[C@@H](C(=O)Nc2ccc(F)c(C(F)(F)F)c2)[C@H]2CC[C@@H]1/C2=C\C1CC1)c1cc(C2=NOC3CC(CO)CC23)ccc1OCCCF (stereo partly shown) [compound 787]
2.4 | COc1ccc(C2=NO[C@H]3C[C@H](CO)C[C@@H]23)cc1C(=O)N[C@H]1[C@@H](C(=O)Nc2ccc(F)c(C(F)(F)F)c2)[C@H]2CC[C@@H]1/C2=C\CC(O)C(F)(F)F (stereo partly shown) [compound 820]
1.3 | COc1ccc(C2=NOC3CC(C(C)O)CC23)cc1C(=O)N[C@H]1[C@@H](C(=O)Nc2ccc(F)c(C(F)(F)F)c2)[C@H]2CC[C@@H]1/C2=C\C1CC1 (stereo partly shown) [compound 845]
11 | CC/C=C1\C2CCC1[C@H](C(=O)Nc1ccc(F)c(C(F)(F)F)c1)[C@@H]2NC(=O)c1cc(-c2cc(C(=O)NC)ccc2F)ccc1OC (stereo partly shown) [compound 156]
262 | COc1ccc(C2=NOC3COCC23)cc1C(=O)N[C@H]1[C@@H](C(=O)NCCc2cccc(C)c2)[C@H]2CC[C@@H]1/C2=C\C1CC1 (stereo partly shown) [compound 650]
373 | COc1ccc(C2=NOC3COCC23)cc1C(=O)N[C@H]1[C@@H](C(=O)N[C@@H](C)c2ccccc2C(F)(F)F)[C@H]2CC[C@@H]1/C2=C\C1CC1 (stereo partly shown) [compound 665]

EC50 [nM] | SMILES
62 | COc1ccc(-n2cc(C(NC(=O)C3CCOCC3)C(=O)O)cn2)cc1C(=O)N[C@@H]1C2CCC(/C2=C/C(F)(F)F)[C@@H]1C(=O)Nc1ccc(F)c(C(F)(F)F)c1 (stereo partly shown) [compound 347]
18.4 | CN(C)c1ccc(C2=NOC3COCC23)cc1C(=O)N[C@H]1[C@@H](C(=O)Nc2ccc(F)c(C(F)(F)F)c2)[C@H]2CC[C@@H]1/C2=C\C(F)(F)F (single isomer, unassigned) [compound 518]
3.5 | COc1ccc(-c2cc([C@H](C)O)on2)cc1C(=O)N[C@H]1[C@@H](C(=O)Nc2ccc(F)c(C(F)(F)F)c2)[C@H]2CC[C@@H]1/C2=C\C1CC1 [compound 465]
4.1 | COc1c(F)cc(C2=NOC3CC(CO)CC23)cc1C(=O)N[C@H]1[C@@H](C(=O)Nc2ccc(F)c(C(F)(F)F)c2)[C@H]2CC[C@@H]1/C2=C\CC(O)C(F)(F)F (stereo partly shown) [compound 836]
3 | COc1ccc(C2=NOC3COCC23)cc1C(=O)N[C@H]1[C@@H](C(=O)Nc2ccc(F)c(C(F)(F)F)c2)[C@H]2CC[C@@H]1/C2=C\c1cnoc1 (stereo partly shown) [compound 802]
242 | COc1ccc(C2=NOC3COCC23)cc1C(=O)N[C@H]1[C@@H](C(=O)NCCC2CCC2)[C@H]2CC[C@@H]1/C2=C\C1CC1 (stereo partly shown) [compound 648]
30.5 | COc1ccc(C2=NOC3CC(O)CC23)cc1C(=O)N[C@H]1[C@@H](C(=O)Nc2ccc(F)c(C(F)(F)F)c2)[C@H]2CC[C@@H]1/C2=C\C(F)(F)F (stereo partly shown) [compound 543]
3.3 | COc1ccc(-c2cc(C(CC(=O)O)C(F)(F)F)ccc2F)cc1C(=O)N[C@H]1[C@@H](C(=O)Nc2ccc(F)c(C(F)(F)F)c2)[C@H]2CC[C@@H]1/C2=C\C1CC1 (stereo partly shown) [compound 873]
239 | COc1ccc(C2=NOC3COCC23)cc1C(=O)N[C@H]1[C@@H](C(=O)N[C@@H]2CCOc3ccccc32)[C@H]2CC[C@@H]1/C2=C\C1CC1 (stereo partly shown) [compound 645]
831 | COc1ccc(C2=NOC(C)(C(=O)O)C2)cc1C(=O)N[C@@H]1C2CCC(/C2=C/C2CC2)[C@@H]1C(=O)Nc1ccc(F)c(C(F)(F)F)c1 (stereo partly shown) [compound 421]
15.2 | COc1ccc(C2=NOC3COCC23)cc1C(=O)N[C@H]1[C@@H](C(=O)N[C@H](C)c2ccccc2C(F)(F)F)[C@H]2CC[C@@H]1/C2=C\C1CC1 (stereo partly shown) [compound 510]
1.6 | CCCOc1c(F)cc(C2=NOC3CC(CO)CC23)cc1C(=O)N[C@H]1[C@@H](C(=O)Nc2ccc(F)c(C(F)(F)F)c2)[C@H]2CC[C@@H]1/C2=C\C1CC1 (stereo partly shown) [compound 779]
330 | COc1ccccc1C(=O)N[C@H]1[C@@H](C(=O)Nc2ccc(F)c(C(F)(F)F)c2)[C@H]2CC[C@@H]1/C2=C\c1ccccc1 [compound 90]
3 | COc1ccc(C2=NO[C@@H]3C[C@H](CO)CN23)cc1C(=O)N[C@H]1[C@@H](C(=O)N[C@H](C)C2(C)CC2)[C@H]2CC[C@@H]1/C2=C\C1CC1 [compound 768]
7.4 | COc1ccc(C2=NO[C@@H]3CC[C@H](O)[C@H]23)cc1C(=O)N[C@H]1[C@@H](C(=O)Nc2ccc(F)c(C(F)(F)F)c2)[C@H]2CC[C@@H]1/C2=C\C1CC1 (single isomer, unassigned) [compound 484]
3.3 | COc1cc(C)c(C2=NOC3CC(CO)CC23)cc1C(=O)N[C@H]1[C@@H](C(=O)Nc2ccc(F)c(C(F)(F)F)c2)[C@H]2CC[C@@H]1/C2=C\C1CC1 (stereo partly shown) [compound 738]
41.7 | CN(C)c1c(Cl)cc(C2=NOC3COCC23)cc1C(=O)N[C@H]1[C@@H](C(=O)Nc2ccc(F)c(C(F)(F)F)c2)[C@H]2CC[C@@H]1/C2=C\C(F)(F)F (single isomer, unassigned) [compound 556]
